# Test: Solubility in water as a function of pH
# Type: physicochemical
compound,measurement,setting,value
"CCCCCCOC(=O)NC(=N)c1ccc(NCc2nc3cc(C(=O)N(CCC(=O)OCC)c4ccccn4)ccc3n2C)cc1 [compound of formula I, ethyl 3-[(2-{[4-(hexyloxycarbonylamino-imino-methyl)-phenylamino]-methyl}-1-methyl-1H-benzimidazole-5-carbonyl)-pyridin-2-yl-amino]-propionate]",solubility in water at low pH levels,low pH,dissolves relatively well
same,solubility in water at pH levels above 5,"pH above 5, definition of the European Pharmacopoeia",virtually insoluble
